How the values were obtained:
Type in all cases: cell-based, human
[1] = test system: AR mRNA; assay: AR RNA expression in LNCaP cells (complete, CSS, CSS+DHT medium); settings: for Percent expression of AR in LNCaP cells cultured in CSS + DHT medium: CSS + DHT (1 nM) medium; for Percent expression of AR in LNCaP cells cultured in CSS + DHT medium / Percent expression of AR in LNCaP cells cultured in CSS medium: 48 hrs; for Percent expression of AR in LNCaP cells cultured in complete medium: 48 hours
Description: Cells were plated at 1,000 cells per well. […] After an incubation period of 48 hours, RNA levels of AR, PSA and TMPRSS2 were measured.
Cells were plated at 2,000 cells per well and cultured in phenol red-free RPMI supplemented with 5% charcoal stripped serum (Gibco) media for 16 hours. […] After an incubation period of 4 hrs, DHT was added to the medium to a final concentration of 1 nM as indicated. RNAs were collected 48 hrs later and levels of AR, PSA and TMPRSS2 were measured.

[2] = test system: C4-2B cells; assay: C4-2B cell proliferation, ASO in combination with MDV3100 (Example 21); settings: for Proliferation (% untreated control) in C4-2B without MDV-3100: 5 days
Description: C4-2B cells were plated at 1,000 cells per well. […] ISIS 549148 was included as a negative control. […] After a treatment period of 5 days, the proliferative capacity of the cancer cells was measured with CellTiter 96® AQueous One Solution Cell Proliferation kit (Promega), following the manufacturer's instructions. […]

[3] = test system: TMPRSS2 mRNA; assay: TMPRSS2 expression in C4-2 cells; settings: 48 hrs; for Percent inhibition of TMPRSS2 expression: C4-2 cells, CSS + DHT medium
Description: Cells were plated at 1,000 cells per well. […] After an incubation period of 48 hrs, RNA levels of AR, PSA and TMPRSS2 were measured.
Cells were plated at 2,000 cells per well and cultured in CSS media with 1 nM DHT. […] After an incubation period of 48 hrs, RNA levels of AR, PSA and TMPRSS2 were measured.

## TTGATTTAATGGTTGC [ISIS 560131] (MOE and (S)-cEt gapmer chemistry, further chemistry not given here) [targets intron 1]
[1]; 0.04 μM
  Percent expression of AR in LNCaP cells cultured in CSS + DHT medium: 101%
  Percent expression of AR in LNCaP cells cultured in CSS medium: 81%
  Percent expression of AR in LNCaP cells cultured in complete medium: 101%
[1]; 0.2 μM
  Percent expression of AR in LNCaP cells cultured in CSS + DHT medium: 71%
  Percent expression of AR in LNCaP cells cultured in CSS medium: 46%
  Percent expression of AR in LNCaP cells cultured in complete medium: 53%
[1]; 1 μM
  Percent expression of AR in LNCaP cells cultured in CSS + DHT medium: 27%
  Percent expression of AR in LNCaP cells cultured in CSS medium: 16%
  Percent expression of AR in LNCaP cells cultured in complete medium: 17%
[1]; 5.0 μM
  Percent expression of AR in LNCaP cells cultured in CSS + DHT medium: 10%
  Percent expression of AR in LNCaP cells cultured in CSS medium: 5%
  Percent expression of AR in LNCaP cells cultured in complete medium: 7%
[2]; ASO dose 0.04 μM + 0.08 μM MDV-3100
  Proliferation (% untreated control) in C4-2B with 0.08 μM MDV-3100: 73 % untreated control
[2]; ASO dose 0.04 μM + 0.4 μM MDV-3100
  Proliferation (% untreated control) in C4-2B with 0.4 μM MDV-3100: 69 % untreated control
[2]; ASO dose 0.04 μM + 2.0 μM MDV-3100
  Proliferation (% untreated control) in C4-2B with 2.0 μM MDV-3100: 42 % untreated control
[2]; ASO dose 0.04 μM + […] MDV-3100
  Proliferation (% untreated control) in C4-2B with […] MDV-3100: 71 % untreated control
[2]; ASO dose 0.04 μM
  Proliferation (% untreated control) in C4-2B without MDV-3100: 59 % untreated control
[2]; ASO dose 0.08 μM + 0.08 μM MDV-3100
  Proliferation (% untreated control) in C4-2B with 0.08 μM MDV-3100: 66 % untreated control
[2]; ASO dose 0.08 μM + 0.4 μM MDV-3100
  Proliferation (% untreated control) in C4-2B with 0.4 μM MDV-3100: 69 % untreated control
[2]; ASO dose 0.08 μM + 2.0 μM MDV-3100
  Proliferation (% untreated control) in C4-2B with 2.0 μM MDV-3100: 37 % untreated control
[2]; ASO dose 0.08 μM + […] MDV-3100
  Proliferation (% untreated control) in C4-2B with […] MDV-3100: 104 % untreated control
[2]; ASO dose 0.08 μM
  Proliferation (% untreated control) in C4-2B without MDV-3100: 84 % untreated control
[2]; ASO dose 0.2 μM + 0.08 μM MDV-3100
  Proliferation (% untreated control) in C4-2B with 0.08 μM MDV-3100: 56 % untreated control
[2]; ASO dose 0.2 μM + 0.4 μM MDV-3100
  Proliferation (% untreated control) in C4-2B with 0.4 μM MDV-3100: 48 % untreated control
[2]; ASO dose 0.2 μM + 2.0 μM MDV-3100
  Proliferation (% untreated control) in C4-2B with 2.0 μM MDV-3100: 49 % untreated control
[2]; ASO dose 0.2 μM + […] MDV-3100
  Proliferation (% untreated control) in C4-2B with […] MDV-3100: 53 % untreated control
[2]; ASO dose 0.2 μM
  Proliferation (% untreated control) in C4-2B without MDV-3100: 47 % untreated control
[2]; ASO dose 1.0 μM + 0.08 μM MDV-3100
  Proliferation (% untreated control) in C4-2B with 0.08 μM MDV-3100: 42 % untreated control
[2]; ASO dose 1.0 μM + 0.4 μM MDV-3100
  Proliferation (% untreated control) in C4-2B with 0.4 μM MDV-3100: 48 % untreated control
[2]; ASO dose 1.0 μM + 2.0 μM MDV-3100
  Proliferation (% untreated control) in C4-2B with 2.0 μM MDV-3100: 43 % untreated control
[2]; ASO dose 1.0 μM + […] MDV-3100
  Proliferation (% untreated control) in C4-2B with […] MDV-3100: 39 % untreated control
[2]; ASO dose 1.0 μM
  Proliferation (% untreated control) in C4-2B without MDV-3100: 41 % untreated control
[2]; C4-2B cells
  synergy with MDV3100: synergistic with MDV3100
[2]; C4-2B cells, 0.08 μM ASO in combination with 0.4 μM MDV3100
  cell proliferation inhibited, combination: 31%
[2]; C4-2B cells, ASO alone at 0.08 μM
  inhibited cell proliferation, ASO alone: 16%
[3]; 0.04 μM
  Percent inhibition of TMPRSS2 expression: 10%
  Percent inhibition of TMPRSS2 expression in C4-2 cells cultured in complete medium: 29%
[3]; 0.2 μM
  Percent inhibition of TMPRSS2 expression: 17%
  Percent inhibition of TMPRSS2 expression in C4-2 cells cultured in complete medium: 62%
[3]; 1 μM
  Percent inhibition of TMPRSS2 expression: 51%
[3]; 5.0 μM
  Percent inhibition of TMPRSS2 expression: 78%
